Article PMC8699473, “An Easily Expandable Multi-Drug LC-MS Assay for the Simultaneous Quantification of 57 Oral Antitumor Drugs in Human Plasma” (Cancers, 2021)
Several values for one entry are separate records, joined by “and”; a condition that tells them apart may be missing. Equal values may be shown once.

Assay: Plasma concentrations in patients on oral antitumor therapy (LC-MS)
Format: in vivo, human
Details: for Min–Max Concentration [% of r.c.] / Median Concentration of All Samples [% of r.c.]: patient plasma, all samples, r.c. = respective cmin; for Interpatient Coefficient of Variation [%]: patient plasma concentrations

Row | SMILES | Min–Max Concentration [% of r.c.] | Interpatient Coefficient of Variation [%] | Median Concentration of All Samples [% of r.c.] | also measured
1 | CNC(=O)c1ccccc1Sc1ccc2c(/C=C/c3ccccn3)n[nH]c2c1 [Axitinib] | 6.0 % of r.c. |  |  | Measured plasma concentration (6 mg/day, 12 h, ±4 h of trough level: no): 0.3 ng/mL
2 | COc1cc2nccc(Oc3ccc(NC(=O)C4(C(=O)Nc5ccc(F)cc5)CC4)cc3)c2cc1OC [Cabozantinib] |  | 58.5 | 153.3 % of r.c. | Measured plasma concentration (20 mg/day, 24 h, ±4 h of trough level: yes): 289.4 ng/mL and 291.0 ng/mL and 551.4 ng/mL; Measured plasma concentration (40 mg/day, 24 h, ±4 h of trough level: yes): 253.5 ng/mL; Measured plasma concentration (60 mg/day, 24 h, ±4 h of trough level: no): 1225.4 ng/mL and 700.9 ng/mL and 627.0 ng/mL; Measured plasma concentration (40/60 mg/day, 24 h, ±4 h of trough level: yes): 445.6 ng/mL and 562.2 ng/mL
3 | CC(C)(C)c1nc(-c2cccc(NS(=O)(=O)c3c(F)cccc3F)c2F)c(-c2ccnc(N)n2)s1 [Dabrafenib] | 455.8–988.8 % of r.c. |  | 722.3 % of r.c. | 
4 | CNC(=O)c1ccc(N2C(=S)N(c3ccc(C#N)c(C(F)(F)F)c3)C(=O)C2(C)C)cc1F [Enzalutamide] | 97.1–154.2 % of r.c. |  | 120.1 % of r.c. | Measured plasma concentration (160 mg/day, 24 h, ±4 h of trough level: yes): 11296.4 ng/mL and 14087.2 ng/mL and 14395.8 ng/mL and 17580.7 ng/mL and 11074.7 ng/mL
5 | Cc1ccc(NC(=O)c2ccc(CN3CCN(C)CC3)cc2)cc1Nc1nccc(-c2cccnc2)n1 [Imatinib] |  | 29.4 | 168.9 % of r.c. | Measured plasma concentration (400 mg/day, 24 h, ±4 h of trough level: yes): 1998.2 ng/mL and 1309.6 ng/mL
6 | COc1cc2nccc(Oc3ccc(NC(=O)NC4CC4)c(Cl)c3)c2cc1C(N)=O [Lenvatinib] |  |  |  | Measured plasma concentration (14 mg/day, 24 h, ±4 h of trough level: yes): 7.8 ng/mL
7 | O=C(c1cc(Cc2n[nH]c(=O)c3ccccc23)ccc1F)N1CCN(C(=O)C2CC2)CC1 [Olaparib] |  | 51.6 | 287.6 % of r.c. | Measured plasma concentration (600 mg/day, 12 h, ±4 h of trough level: no): 4442.9 ng/mL and 5552.4 ng/mL and 6053.6 ng/mL
8 | C=CC(=O)Nc1cc(Nc2nccc(-c3cn(C)c4ccccc34)n2)c(OC)cc1N(C)CCN(C)C [Osimertinib] | 101.1 % of r.c. |  |  | Measured plasma concentration (80 mg/day, 24 h, ±4 h of trough level: no): 167.8 ng/mL
9 | Cc1ccc(Nc2nccc(N(C)c3ccc4c(C)n(C)nc4c3)n2)cc1S(N)(=O)=O [Pazopanib] | 76.6–86.5 % of r.c. |  | 81.5 % of r.c. | Measured plasma concentration (200 mg/day, 24 h, ±4 h of trough level: yes): 24300.0 ng/mL and 21520.0 ng/mL
